The values that follow come from BindingDB's records for doi:10.1016/j.bmcl.2006.01.017 (Celera, 2006).

SMILES strings stand for the structures.

One test has as its target T1, Serine protease 1 (Bos taurus, UniProt P00760).
T1 sequence (P00760 whole entry): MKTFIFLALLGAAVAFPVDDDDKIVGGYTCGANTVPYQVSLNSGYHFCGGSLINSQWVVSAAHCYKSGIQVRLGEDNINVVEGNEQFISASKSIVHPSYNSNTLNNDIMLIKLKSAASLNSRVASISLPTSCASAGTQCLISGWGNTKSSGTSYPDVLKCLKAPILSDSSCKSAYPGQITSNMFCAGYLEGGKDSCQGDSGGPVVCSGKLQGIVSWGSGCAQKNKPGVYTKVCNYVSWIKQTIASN
The test can be described thus: Enzyme Inhibition Assay. The conditions noted are these: pH 7.4; 22 °C. As for the experimental part:
(§1) The apparent Ki values were then calculated according to the Cheng-Prusoff equation: Ki = IC50/1 + [S]/Km.

For another test, the target named is T2, Coagulation factor VII (Homo sapiens, UniProt P08709).
T2 sequence (P08709 whole entry): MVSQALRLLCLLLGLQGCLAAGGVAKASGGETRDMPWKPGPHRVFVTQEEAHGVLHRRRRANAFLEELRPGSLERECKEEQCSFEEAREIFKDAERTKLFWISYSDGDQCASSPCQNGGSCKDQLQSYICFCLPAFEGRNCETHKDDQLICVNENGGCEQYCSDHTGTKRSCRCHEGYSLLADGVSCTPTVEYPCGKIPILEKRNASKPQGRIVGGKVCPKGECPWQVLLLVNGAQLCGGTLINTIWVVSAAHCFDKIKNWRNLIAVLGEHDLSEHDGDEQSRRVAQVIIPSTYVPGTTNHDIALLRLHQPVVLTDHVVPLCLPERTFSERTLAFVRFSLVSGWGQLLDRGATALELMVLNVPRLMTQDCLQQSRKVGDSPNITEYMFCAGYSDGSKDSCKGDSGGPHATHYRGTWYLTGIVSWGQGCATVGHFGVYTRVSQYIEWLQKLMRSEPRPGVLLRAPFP
Description: Enzyme Inhibition Assay. Particulars: pH 7.4; 22 °C. Here is the method: as §1

`Nc1ccc2[nH]c(-c3cc(CC(=O)O)cc(-c4cccc([N+](=O)[O-])c4)c3O)nc2n1` [2-(3-{5-amino-1H-imidazo[4,5-b]pyridin-2-yl}-4-hydroxy-5-(3-nitrophenyl)phenyl)acetic acid] gave a Ki on Serine protease 1 greater than 150 µM.
`CN(C)CCNC(=O)NCc1cccc(-c2cc(CC(=O)O)cc(-c3cc4nc(N)ccc4[nH]3)c2O)c1` [2-(3-{5-amino-1H-pyrrolo[3,2-b]pyridin-2-yl}-5-{3-[({[2-(dimethylamino)ethyl]carbamoyl}amino)methyl]phenyl}-4-hydroxyphenyl)acetic acid] showed a Ki at Coagulation factor VII of 1.4 µM. This counts as single-digit micromolar.
Compound `O=C(O)Cc1cc(-c2cccc([N+](=O)[O-])c2)c(O)c(-c2nc3ccccc3[nH]2)c1` [2-[3-(1H-1,3-benzodiazol-2-yl)-4-hydroxy-5-(3-nitrophenyl)phenyl]acetic acid] had a Ki on Serine protease 1 greater than 150 µM.
On to `NC(=O)Nc1cccc(-c2cc(CC(=O)O)cc(-c3cc4nc(N)ccc4[nH]3)c2O)c1` [2-(3-{5-amino-1H-pyrrolo[3,2-b]pyridin-2-yl}-5-[3-(carbamoylamino)phenyl]-4-hydroxyphenyl)acetic acid], for which the Ki at Coagulation factor VII was found to be 12 µM. That is a double-digit micromolar value.
In the case of `CS(=O)(=O)c1cccc(-c2cc(CC(=O)O)cc(-c3cc4nc(N)ccc4[nH]3)c2O)c1` [2-(3-{5-amino-1H-pyrrolo[3,2-b]pyridin-2-yl}-4-hydroxy-5-(3-methanesulfonylphenyl)phenyl)acetic acid], affinity at Coagulation factor VII was put at a Ki of 7.4 µM.

A word on the Ki: it is the equilibrium dissociation constant of an inhibitor or competing ligand from its target. A high value points to lower affinity.
